Data as given in patent US12357711B2, “PSMA binding dual mode radiotracer and therapeutic” (Technische Universität München, priority 2019, dated 2025).

Tested on: SCID mice
Experiment: Preclinical dosimetry from biodistribution in mice, extrapolated to 70-kg Standard Adult (OLINDA/EXM 1.0)
Type: in vivo
Settings: […] bladder voiding interval
Method: 3-5 mice were injected per timepoint with a mean 25.6±3.6 MBq of 18F-rhPSMA-7 and 28.5±4.8 MBq of 18F-rhPSMA-7.3, respectively. Mice, severe combined immunodeficiency (SCID) were used for the experiments.
Mice were sacrificed at the following timepoints: • ^18F-rhPSMA-7: 10, 20, 40, 60, 120 and 180 minutes after administration. • ^18F-rhPSMA-7.3: 10, 60, 120, 180 and 300 minutes after administration.
Urine, blood, heart, lung, spleen, pancreas, liver, stomach (emptied), small intestine (emptied), large intestine (emptied), kidneys, bladder, testis, fat, muscle (partial, femoral), femur, tail and brain. Urine was collected with a pipette in the CO2 gas chamber. In case of missing urination in the chamber the bladder was aspirated with an insulin syringe. Blood was withdrawn instantly after sacrifice with an insulin syringe from the heart. All other tissues and organs were dissected and transferred directly in plastic containers.
The counting rates of measurement samples were automatically corrected for decay. The radioactivity distribution ratios (unit: percentage of the injected dose (% ID) in the measurement samples were determined using the equation below. The sum of the counting rates from all measurement samples obtained from one mouse was designated as the counting rate for administrated radioactivity.
The radioactivity distribution ratio per unit weight of the measurement sample (unit: % ID/g) excluding urine and feces samples was determined by using the equation below. The weight of the measurement sample was determined by subtraction of the empty measurement container from the container including the sample.
For consistency of statistical calculations for each radiotracer the same number of time-points for ^18F-rhPSMA-7 and ^18F-rhPSMA-7.3 was used. Therefore, for ^18F-rhPSMA-7 the 10 min and 20 min time points were combined creating a 15 min endpoint.
The time-integral of activity for the accumulation in the significant source organs (AUCs) were generated both with numerical integration and physical decay according to J Juan et al., Journal of Pharmaceutical Sciences, 1993, 82:762-763.
In brief, to calculate a human dosimetry from the biodistribution in the mice, an extrapolation was necessary to account for the differences between the animals and humans. Normal-organ radiation doses were estimated for the 70-kg Standard Adult anatomic model using time-depending organ activity concentrations (in percent of the injected dose per gram, % ID/g) and total-body activities measured in the biodistribution studies in mice.
Tissue activity concentrations in mice were converted to tissue fractional activities in the 70-kg Standard Adult using the relative fractional organ masses in the Standard Adult and the “standard” 25-gramm mouse. Time-dependent total-body activity was fit to an exponential function and the difference between the injected activity and the total-body activity was assumed to be excreted to the urine because activity concentrations in the liver and GI tracer were low at all time points studied.
Organ residence time was calculated by numerical integration using the trapezoidal rule and the rest-of-body ^18F residence times was calculated as the difference between the total-body residence time and the sum of the organ and urine residence times. The bladder contents residence time was estimated using the dynamic voiding model in the OLINDA/EXM 1.0 dosimetry software. Finally, the Standard Adult mean organ dose equivalents (in mSv/MBq) and effective dose (also in mSv/MBq) were then calculated using OLIN DA/EXM 1.0.
Final calculation of radiation absorbed dose and dosimetry from biodistribution in mice: The tissues or organs in which a significant accumulation of radioactivity occurs (i.e., source organ) were kidney, spleen, lung, liver and heart. With respect to activity accumulation and clearance, a rapid clearance from blood and clearance to urine but relatively slow build-up in kidney was found.

## [^19F][^natGa]D/L-Dap-R/S-DOTAGA-rhPSMA7 [rhPSMA7-rac]
  Adrenals ED Cont.: 3.90E−05 mSv/MBq
  Adrenals EDE Cont.: 0.00E000 mSv/MBq
  Adrenals dose Alpha: 0.00E000 mSv/MBq
  Adrenals dose Beta: 1.95E−03 mSv/MBq
  Adrenals dose Photon: 5.85E−03 mSv/MBq
  Adrenals dose Total: 7.80E−03 mSv/MBq
  Brain ED Cont.: 2.24E−05 mSv/MBq
  Brain EDE Cont.: 0.00E000 mSv/MBq
  Brain dose Alpha: 0.00E000 mSv/MBq
  Brain dose Beta: 1.95E−03 mSv/MBq
  Brain dose Photon: 2.54E−03 mSv/MBq
  Brain dose Total: 4.49E−03 mSv/MBq
  Breasts ED Cont.: 2.12E−04 mSv/MBq
  Breasts EDE Cont.: 6.36E−04 mSv/MBq
  Breasts dose Alpha: 0.00E000 mSv/MBq
  Breasts dose Beta: 1.95E−03 mSv/MBq
  Breasts dose Photon: 2.29E−03 mSv/MBq
  Breasts dose Total: 4.24E−03 mSv/MBq
  Gallbladder Wall ED Cont.: 0.00E000 mSv/MBq
  Gallbladder Wall EDE Cont.: 0.00E000 mSv/MBq
  Gallbladder Wall dose Alpha: 0.00E000 mSv/MBq
  Gallbladder Wall dose Beta: 1.95E−03 mSv/MBq
  Gallbladder Wall dose Photon: 5.54E−03 mSv/MBq
  Gallbladder Wall dose Total: 7.49E−03 mSv/MBq
  Heart Wall ED Cont.: 0.00E000 mSv/MBq
  Heart Wall EDE Cont.: 0.00E000 mSv/MBq
  Heart Wall dose Alpha: 0.00E000 mSv/MBq
  Heart Wall dose Beta: 8.82E−04 mSv/MBq
  Heart Wall dose Photon: 3.54E−03 mSv/MBq
  Heart Wall dose Total: 4.42E−03 mSv/MBq
  Kidneys ED Cont.: 3.25E−04 mSv/MBq
  Kidneys EDE Cont.: 3.91E−03 mSv/MBq
  Kidneys dose Alpha: 0.00E000 mSv/MBq
  Kidneys dose Beta: 4.70E−02 mSv/MBq
  Kidneys dose Photon: 1.80E−02 mSv/MBq
  Kidneys dose Total: 6.51E−02 mSv/MBq
  LLI Wall ED Cont.: 1.93E−03 mSv/MBq
  LLI Wall EDE Cont.: 9.66E−04 mSv/MBq
  LLI Wall dose Alpha: 0.00E000 mSv/MBq
  LLI Wall dose Beta: 1.95E−03 mSv/MBq
  LLI Wall dose Photon: 1.41E−02 mSv/MBq
  LLI Wall dose Total: 1.61E−02 mSv/MBq
  Liver ED Cont.: 2.13E−04 mSv/MBq
  Liver EDE Cont.: 0.00E000 mSv/MBq
  Liver dose Alpha: 0.00E000 mSv/MBq
  Liver dose Beta: 6.35E−04 mSv/MBq
  Liver dose Photon: 3.63E−03 mSv/MBq
  Liver dose Total: 4.27E−03 mSv/MBq
  Lungs ED Cont.: 5.16E−04 mSv/MBq
  Lungs EDE Cont.: 5.16E−04 mSv/MBq
  Lungs dose Alpha: 0.00E000 mSv/MBq
  Lungs dose Beta: 1.25E−03 mSv/MBq
  Lungs dose Photon: 3.04E−03 mSv/MBq
  Lungs dose Total: 4.30E−03 mSv/MBq
  Muscle ED Cont.: 3.84E−05 mSv/MBq
  Muscle EDE Cont.: 0.00E000 mSv/MBq
  Muscle dose Alpha: 0.00E000 mSv/MBq
  Muscle dose Beta: 1.95E−03 mSv/MBq
  Muscle dose Photon: 5.73E−03 mSv/MBq
  Muscle dose Total: 7.68E−03 mSv/MBq
  Osteogenic Cells ED Cont.: 8.93E−05 mSv/MBq
  Osteogenic Cells EDE Cont.: 2.68E−04 mSv/MBq
  Osteogenic Cells dose Alpha: 0.00E000 mSv/MBq
  Osteogenic Cells dose Beta: 4.18E−03 mSv/MBq
  Osteogenic Cells dose Photon: 4.75E−03 mSv/MBq
  Osteogenic Cells dose Total: 8.93E−03 mSv/MBq
  Ovaries ED Cont.: 3.09E−03 mSv/MBq
  Ovaries EDE Cont.: 3.87E−03 mSv/MBq
  Ovaries dose Alpha: 0.00E000 mSv/MBq
  Ovaries dose Beta: 1.95E−03 mSv/MBq
  Ovaries dose Photon: 1.35E−02 mSv/MBq
  Ovaries dose Total: 1.55E−02 mSv/MBq
  Pancreas ED Cont.: 4.04E−05 mSv/MBq
  Pancreas EDE Cont.: 0.00E000 mSv/MBq
  Pancreas dose Alpha: 0.00E000 mSv/MBq
  Pancreas dose Beta: 1.95E−03 mSv/MBq
  Pancreas dose Photon: 6.13E−03 mSv/MBq
  Pancreas dose Total: 8.08E−03 mSv/MBq
  Red Marrow ED Cont.: 8.16E−04 mSv/MBq
  Red Marrow EDE Cont.: 8.16E−04 mSv/MBq
  Red Marrow dose Alpha: 0.00E000 mSv/MBq
  Red Marrow dose Beta: 1.39E−03 mSv/MBq
  Red Marrow dose Photon: 5.41E−03 mSv/MBq
  Red Marrow dose Total: 6.80E−03 mSv/MBq
  Skin ED Cont.: 4.93E−05 mSv/MBq
  Skin EDE Cont.: 0.00E000 mSv/MBq
  Skin dose Alpha: 0.00E000 mSv/MBq
  Skin dose Beta: 1.95E−03 mSv/MBq
  Skin dose Photon: 2.98E−03 mSv/MBq
  Skin dose Total: 4.93E−03 mSv/MBq
  Small Intestine ED Cont.: 5.18E−05 mSv/MBq
  Small Intestine EDE Cont.: 0.00E000 mSv/MBq
  Small Intestine dose Alpha: 0.00E000 mSv/MBq
  Small Intestine dose Beta: 1.95E−03 mSv/MBq
  Small Intestine dose Photon: 8.40E−03 mSv/MBq
  Small Intestine dose Total: 1.04E−02 mSv/MBq
  Spleen ED Cont.: 1.30E−04 mSv/MBq
  Spleen EDE Cont.: 1.56E−03 mSv/MBq
  Spleen dose Alpha: 0.00E000 mSv/MBq
  Spleen dose Beta: 1.59E−02 mSv/MBq
  Spleen dose Photon: 1.01E−02 mSv/MBq
  Spleen dose Total: 2.61E−02 mSv/MBq
  Stomach Wall ED Cont.: 8.40E−04 mSv/MBq
  Stomach Wall EDE Cont.: 0.00E000 mSv/MBq
  Stomach Wall dose Alpha: 0.00E000 mSv/MBq
  Stomach Wall dose Beta: 1.95E−03 mSv/MBq
  Stomach Wall dose Photon: 5.05E−03 mSv/MBq
  Stomach Wall dose Total: 7.00E−03 mSv/MBq
  Testes ED Cont.: 0.00E000 mSv/MBq
  Testes EDE Cont.: 0.00E000 mSv/MBq
  Testes dose Alpha: 0.00E000 mSv/MBq
  Testes dose Beta: 1.95E−03 mSv/MBq
  Testes dose Photon: 9.69E−03 mSv/MBq
  Testes dose Total: 1.16E−02 mSv/MBq
  Thymus ED Cont.: 2.59E−05 mSv/MBq
  Thymus EDE Cont.: 0.00E000 mSv/MBq
  Thymus dose Alpha: 0.00E000 mSv/MBq
  Thymus dose Beta: 1.95E−03 mSv/MBq
  Thymus dose Photon: 3.24E−03 mSv/MBq
  Thymus dose Total: 5.18E−03 mSv/MBq
  Thyroid ED Cont.: 2.59E−04 mSv/MBq
  Thyroid EDE Cont.: 1.55E−04 mSv/MBq
  Thyroid dose Alpha: 0.00E000 mSv/MBq
  Thyroid dose Beta: 1.95E−03 mSv/MBq
  Thyroid dose Photon: 3.23E−03 mSv/MBq
  Thyroid dose Total: 5.18E−03 mSv/MBq
  Total Body ED Cont.: 0.00E000 mSv/MBq
  Total Body EDE Cont.: 0.00E000 mSv/MBq
  Total Body dose Alpha: 0.00E000 mSv/MBq
  Total Body dose Beta: 2.37E−03 mSv/MBq
  Total Body dose Photon: 5.39E−03 mSv/MBq
  Total Body dose Total: 7.77E−03 mSv/MBq
  ULI Wall ED Cont.: 4.63E−05 mSv/MBq
  ULI Wall EDE Cont.: 0.00E000 mSv/MBq
  ULI Wall dose Alpha: 0.00E000 mSv/MBq
  ULI Wall dose Beta: 1.95E−03 mSv/MBq
  ULI Wall dose Photon: 7.31E−03 mSv/MBq
  ULI Wall dose Total: 9.26E−03 mSv/MBq
  Urinary Bladder Wall ED Cont.: 1.77E−02 mSv/MBq
  Urinary Bladder Wall EDE Cont.: 2.12E−02 mSv/MBq
  Urinary Bladder Wall dose Alpha: 0.00E000 mSv/MBq
  Urinary Bladder Wall dose Beta: 2.45E−01 mSv/MBq
  Urinary Bladder Wall dose Photon: 1.08E−01 mSv/MBq
  Urinary Bladder Wall dose Total: 3.54E−01 mSv/MBq
  Uterus ED Cont.: 1.40E−04 mSv/MBq
  Uterus EDE Cont.: 1.68E−03 mSv/MBq
  Uterus dose Alpha: 0.00E000 mSv/MBq
  Uterus dose Beta: 1.95E−03 mSv/MBq
  Uterus dose Photon: 2.61E−02 mSv/MBq
  Uterus dose Total: 2.80E−02 mSv/MBq
